Reference: patent US20120122115A1, “Bacterial quorum sensing biosensor” (priority 2006, published 2012)

Legend:
[1] = molecular target: CLPY biosensor (CFP-LuxP-YFP fusion) (Vibrio harveyi, UniProt P54300, D303A); experiment: CLPY FRET binding affinity determination; parameters: species or system V. harveyi
Protocol: The YFP or CFP fluorescence response of wild-type and mutant forms of CLPY (1.0 mL, 0.015 mg/mL) to different ligands is measured 5 minutes after addition of the ligand to the protein at room temperature. No time-dependent changes in the CLPY FRET ratio are observed after incubation for 5 minutes. All BAI-2 dilutions are carried out in a borate-free buffer to maintain the DPD:borate ratio (1:4). The CLPY FRET ratio response to different BAI-2 concentrations is used to generate the ligand binding saturation curve. For the determination of the binding affinity (Kd) and the binding stoichiometry n, a nonlinear regression analysis equation (Equation 4) is used as shown below: […]
where R is the observed CLPY FRET ratio response for different ligand concentrations (s) and Rmax and Rmin represent the ligand-free and ligand-saturated FRET ratios, respectively.

[2] = system: V. harveyi strain MM30 (luxS-); experiment: Bacterial reporter bioassay (luminescence) and EC50 determination; type: cell-based; details: MM30 in borate-free AB medium
Protocol: V. harveyi strain MM30 (luxS^−) is grown overnight at 28° C. for 16 hours and diluted 1:5000 in fresh borate-free AB medium. Bacteria (90 μL) are added to a 96-well microtiter plate containing 10 μL dilutions of the sample and incubated for 4 hours at 30° C. Luminescence is read using a Wallac Victor2 multimode plate reader (Perkin-Elmer). The BAI-2 concentration required for 50% maximum luminescence response (EC50) is determined using a relationship based on the luminescence response L for different ligand concentrations (s)
where Lmin and Lmax represent the minimum and maximum luminescence responses, respectively, at the time of measurement.

## CC(=O)C(=O)C(O)CO (stereo not shown) [DPD, 4,5-dihydroxy-2,3-pentanedione]
[1]; DPD ≦100 μM
  CLPY FRET response: did not exhibit any detectable FRET response
[2]
  bacterial reporter strain luminescence response (qualitative): did not respond

## OB(O)O [borate]
[1]; borate ≦400 μM
  CLPY FRET response: did not exhibit any detectable FRET response
[2]
  bacterial reporter strain luminescence response (qualitative): did not respond
